Source: patent publication US6486326B2, “iso-CBI and iso-CI analogs of CC-1065 duocarmycins” (The Scripps Research Institute, priority 1997, dated 2002)

Tested on: w836 DNA (146 bp)
Assay: DNA alkylation selectivity and efficiency, thermally-induced strand cleavage of w836 DNA
Assay type: biochemical
Procedure: FIG. 6 illustsrates thermally-induced strand cleavage of w836 DNA (146 bp, nucleotide nos. 5189-91): DNA-agent incubation for 24 h ((−)-iso-CBI-TMI) at 25° C., removal of unbound agent and 30 min of thermolysis (100° C.), followed by denaturing 8% PAGE and autoradiography; lane 1, control DNA; lanes 2-5, Sanger G, C, A, and T sequencing reactions; lanes 6-8 (−)-iso-CBI-TMI ([…] to 1×10^−5 M); lanes 9-10, (+)-duocarmycin SA (1×10^−5 to 1×10^−6 M); lanes 11-12, (+)-iso-CBI-TMI (1×10^−2 and 1×10^−3).
DNA Alkylation Selectivity and Efficiency: The DNA alkylation properties of the agents were examined within w794 and w836 duplex DNA for which comparative results are available for related agents. (Boger, D. L., et al., J. Am. Chem. Soc. 1994, 116, 11335; Boger, D. L., et al., J. Am. Chem. Soc. 1994, 116, 6461; and Boger, D. L., et al., J. Am. Chem. Soc. 1995, 117, 11647) The alkylation site identification and the assessment of the relative selectivity among the available sites were obtained by thermally-induced strand cleavage of the singly 5′ end-labeled duplex DNA after exposure to the agents. […]

## COc1cc2cc(C(=O)N3CC4CC45C(=O)c4ccccc4C=C35)[nH]c2c(OC)c1OC (single isomer, unassigned; (-)) [(−)-iso-CBI-TMI, 2-[(5,6,7-Trimethoxyindol-2-yl)carbonyl]-1,2,9,9a-tetrahydrocyclopropa[c]benzo[f]indol-8-one]
  DNA alkylation sites / selectivity: same sites as (+)-duocarmycin SA
